Experiments:
[1] = stability of solid form; type: physicochemical
[2] = target: T1, recombinant human 5-HT1A receptor (Homo sapiens, UniProt P08908); test: selectivity for α1a receptor relative to 5-HT1A receptor; type: binding
T1 sequence (P08908 1-422): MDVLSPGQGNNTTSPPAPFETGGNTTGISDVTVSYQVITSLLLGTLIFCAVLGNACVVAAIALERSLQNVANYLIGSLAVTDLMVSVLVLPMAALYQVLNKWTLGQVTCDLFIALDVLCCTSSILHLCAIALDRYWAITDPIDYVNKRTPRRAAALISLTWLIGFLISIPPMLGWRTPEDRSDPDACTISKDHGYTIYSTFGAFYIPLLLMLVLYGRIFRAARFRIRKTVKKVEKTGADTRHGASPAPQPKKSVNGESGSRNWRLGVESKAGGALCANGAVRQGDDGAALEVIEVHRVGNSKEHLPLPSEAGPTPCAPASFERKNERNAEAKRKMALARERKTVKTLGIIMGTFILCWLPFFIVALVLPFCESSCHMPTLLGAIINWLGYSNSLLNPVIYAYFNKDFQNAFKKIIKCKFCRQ

[3] = water solubility; type: physicochemical
[4] = target: T2, α1b receptor (Homo sapiens, UniProt P35368); test: selectivity for α1a receptor compared to α1b receptor; type: binding
T2 sequence (P35368 1-520): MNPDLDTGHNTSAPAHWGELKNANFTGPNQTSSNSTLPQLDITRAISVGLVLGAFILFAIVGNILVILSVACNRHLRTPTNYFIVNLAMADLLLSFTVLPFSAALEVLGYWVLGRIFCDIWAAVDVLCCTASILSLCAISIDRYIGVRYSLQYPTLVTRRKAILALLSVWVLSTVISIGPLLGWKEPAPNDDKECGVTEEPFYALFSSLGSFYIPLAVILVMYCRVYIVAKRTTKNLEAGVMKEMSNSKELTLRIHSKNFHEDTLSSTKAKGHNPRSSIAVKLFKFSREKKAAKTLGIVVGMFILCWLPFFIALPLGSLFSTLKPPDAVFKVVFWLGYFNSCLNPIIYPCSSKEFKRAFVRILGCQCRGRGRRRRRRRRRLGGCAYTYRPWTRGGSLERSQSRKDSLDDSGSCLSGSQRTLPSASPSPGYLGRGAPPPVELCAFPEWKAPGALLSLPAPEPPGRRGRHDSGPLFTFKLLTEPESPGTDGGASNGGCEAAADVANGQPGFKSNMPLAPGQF

[5] = target: T3, recombinant human α1a receptor (Homo sapiens, UniProt P35348); details: cited from earlier work
T3 sequence (P35348 1-466): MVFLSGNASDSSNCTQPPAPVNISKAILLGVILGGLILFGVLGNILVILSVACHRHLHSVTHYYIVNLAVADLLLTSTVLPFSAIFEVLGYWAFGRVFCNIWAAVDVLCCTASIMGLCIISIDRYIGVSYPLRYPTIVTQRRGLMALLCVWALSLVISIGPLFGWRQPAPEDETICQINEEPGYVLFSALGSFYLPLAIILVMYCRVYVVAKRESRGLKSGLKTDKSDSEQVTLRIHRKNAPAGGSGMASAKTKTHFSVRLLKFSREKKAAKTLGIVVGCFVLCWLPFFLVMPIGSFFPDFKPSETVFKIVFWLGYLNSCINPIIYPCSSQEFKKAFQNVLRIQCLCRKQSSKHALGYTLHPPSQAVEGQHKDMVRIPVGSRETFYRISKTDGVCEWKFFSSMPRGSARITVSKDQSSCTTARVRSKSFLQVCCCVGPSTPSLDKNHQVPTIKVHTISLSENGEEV

[6] = target: T4, α1d receptor (Homo sapiens, UniProt P25100); test: selectivity for α1a receptor compared to α1d receptor; type: binding
T4 sequence (P25100 1-572): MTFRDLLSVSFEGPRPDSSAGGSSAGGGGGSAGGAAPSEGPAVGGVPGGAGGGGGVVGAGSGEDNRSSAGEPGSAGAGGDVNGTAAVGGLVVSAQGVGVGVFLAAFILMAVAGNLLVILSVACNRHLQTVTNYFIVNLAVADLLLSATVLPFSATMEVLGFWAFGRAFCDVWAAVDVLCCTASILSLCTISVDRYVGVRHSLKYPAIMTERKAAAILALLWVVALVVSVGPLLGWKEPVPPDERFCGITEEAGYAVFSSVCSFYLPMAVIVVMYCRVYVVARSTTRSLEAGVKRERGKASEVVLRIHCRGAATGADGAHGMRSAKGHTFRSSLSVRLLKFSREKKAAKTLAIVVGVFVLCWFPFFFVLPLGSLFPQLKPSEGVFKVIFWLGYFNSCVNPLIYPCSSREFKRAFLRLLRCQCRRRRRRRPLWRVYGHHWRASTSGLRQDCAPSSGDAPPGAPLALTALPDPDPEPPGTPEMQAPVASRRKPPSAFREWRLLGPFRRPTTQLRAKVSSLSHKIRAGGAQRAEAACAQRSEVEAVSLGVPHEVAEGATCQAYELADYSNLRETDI

[7] = system: α1L receptor; details: isolated rabbit aorta model system; cited from earlier work

Row | SMILES | heat stability / stability (in words) [1] | selectivity for the recombinant human α1a receptor relative to the recombinant human 5-HT1A receptor [2] | water solubility (in words) [3] | selectivity for α1a receptor as compared to the α1b receptor [4] | affinity for the α1a receptor [5] | selectivity for α1a receptor as compared to the α1d receptor [6] | functional antagonism of the α1L receptor [7] | solubility ([3]; water, at 25° C.)
1 | COc1ccccc1N1CCN(CCCNC(=O)c2csc3c(=O)cc(C(F)(F)F)oc23)CC1 [Example 1, N-{3-[4-(2-methoxyphenyl)-1-piperazinyl]propyl}-7-oxo-5-trifluoromethyl-7H-thieno[3,2-b]pyran-3-carboxamide] | heat instability | ~45 fold | poor water solubility | ~40 fold | high affinity | ~6 fold | functional antagonism | 
2 | COc1ccccc1N1CCN(CCCNC(=O)c2csc3c(=O)cc(C(F)(F)F)oc23)CC1.CS(=O)(=O)O [Example 2A, N-{3-[4-(2-methoxyphenyl)-1-piperazinyl]propyl}-7-oxo-5-trifluoromethyl-7H-thieno[3,2-b]pyran-3-carboxamide mesylate salt] |  |  | improved water solubility compared to the free base |  |  |  |  | 100 mg/mL
